Values quoted from earlier work, collected in patent US11389398B2, “Gastroretentive treatment of nocturnal symptoms and morning akinesia in subjects with parkinson's disease” (priority 2019, dated 2022).
Read-outs that look alike come from different tables or passages of the source.

## N[C@@H](Cc1ccc(O)c(O)c1)C(=O)O [levodopa, 3-hydroxy-L-Tyrosine]
Controlled release tablets (Contin 1998)
  delay in the identification of circulating plasma levodopa levels after meals: 30 to 75 min
Immediate release tablets (Baruzzi 1987)
  delay in the identification of circulating plasma levodopa levels after meals: 29 to 60 min
